Earlier results on 11 compounds are cited in patent publication US20050060811A1, “Fabric care article and method for conserving energy” (The Procter & Gamble Company, priority 2000, published 2005).

Settings in one data set: not given
In the case of `ClC=CC[N+]12CN3CN(CN(C3)C1)C2.[Cl-]` [Dowicil 200, 1-(3-Chlorallyl)-3,5,7-triaza-1-azoniaadamantane chloride], the “solubility in water” value is on record as “freely soluble in water”.

Still in this data set, the particulars now being: in water.
Turning to `OCCOc1ccccc1` [2-phenoxyethanol], the water solubility result was “about 2.67%”.

With `OCCc1ccccc1` [2-phenylethanol], the water solubility result is “about 2%”.

On to `O=[N+]([O-])C1(Br)COCOC1` [Bronidox L, 5-bromo-5-nitro-1,3-dioxane], for which the water solubility result is on record as “about 0.46%”.

In the case of `O=[N+]([O-])C(Br)(CO)CO` [Bronopol, 2-bromo-2-nitropropane-1,3-diol], the water solubility result is “about 25%”.

Consider `CC1(C)C(=O)N(CO)C(=O)N1CO` [DMDM hydantoin, 1,3-bis(hydroxymethyl)-5,5-dimethyl-2,4-imidazolidinedione], for which the water solubility entry is “more than 50%”.

For `OCc1ccccc1` [benzyl alcohol], the water solubility result is listed as “about 4%”.

Turning to `[H]/N=C(\N/C(=N/[H])NCCCCCCNC(=N)NC(=N)Nc1ccc(Cl)cc1)Nc1ccc(Cl)cc1` [chlorhexidine diacetate, 1,1′-hexamethylene bis(5-(p-chlorophenyl)biguanide)], the water solubility result is on record as “about 1.8%”.

In the case of `[H]/N=C(\N/C(=N/[H])NCCCCCCNC(=N)NC(=N)Nc1ccc(Cl)cc1)Nc1ccc(Cl)cc1` [chlorhexidine digluconate, 1,1′-hexamethylene bis(5-(p-chlorophenyl)biguanide)], the water solubility result is given as “about 70%”.

As to `CC(C)(O)C(Cl)(Cl)Cl` [chlorobutanol, 1,1,1-Trichloro-2-methylpropan-2-ol], the water solubility result is reported as “about 0.8%”.

Regarding `[Na+].[O-][n+]1ccccc1[S-]` [sodium pyrithione], the water solubility entry is reported as “about 50%”.
